Results published in ChEMBL document CHEMBL3351271, “Design, synthesis and biological evaluation of novel potent MDM2/p53 small-molecule inhibitors” (Bioorg Med Chem Lett, 2015).

Legend:
[1] = Cytotoxicity against p53 deficient human HCT116 cells after 48 hrs by MTT assay; format: functional, cell-based; settings: HCT-116, 48 h
HEK293 = test: Cytotoxicity against HEK293 cells after 48 hrs by MTT assay; format: cell-based; settings: Homo sapiens, HEK293, 48 h
SiHa = test: Cytotoxicity against human SiHa cells after 48 hrs by MTT assay; format: functional, cell-based
HepG2 = test: Cytotoxicity against human HepG2 cells after 48 hrs by MTT assay; format: functional, cell-based; settings: HepG2, 48 h
[2] = Cytotoxicity against p53 expressing human HCT116 cells after 48 hrs by MTT assay; format: functional, cell-based; settings: HCT-116, 48 h
MCF7 [3] = test: Cytotoxicity against human MCF7 cells after 48 hrs by MTT assay; format: functional, cell-based; settings: MCF7, 48 h
MCF7 [4] = test: Cytotoxicity against human MCF7 cells after 120 hrs by MTT assay; format: functional; settings: MCF7, 120 h
[5] = target: Tumour suppressor p53/oncoprotein Mdm2 (Homo sapiens, UniProt Q00987); test: Inhibition of MDM2/P53 (unknown origin) protein interaction by fluorescent polarization assay
Tumour suppressor p53/oncoprotein Mdm2, sequence (P04637 whole entry): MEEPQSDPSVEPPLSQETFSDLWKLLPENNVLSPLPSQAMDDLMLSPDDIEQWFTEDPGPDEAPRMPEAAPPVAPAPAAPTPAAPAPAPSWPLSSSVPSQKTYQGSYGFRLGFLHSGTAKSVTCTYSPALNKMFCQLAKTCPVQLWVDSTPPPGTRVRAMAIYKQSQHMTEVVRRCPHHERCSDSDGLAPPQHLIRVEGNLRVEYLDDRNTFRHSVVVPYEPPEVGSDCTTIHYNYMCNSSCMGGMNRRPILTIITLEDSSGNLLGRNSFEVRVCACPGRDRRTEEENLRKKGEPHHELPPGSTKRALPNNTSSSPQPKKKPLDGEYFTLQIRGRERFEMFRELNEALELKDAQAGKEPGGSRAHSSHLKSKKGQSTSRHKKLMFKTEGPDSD
Tumour suppressor p53/oncoprotein Mdm2, sequence (Q00987 whole entry): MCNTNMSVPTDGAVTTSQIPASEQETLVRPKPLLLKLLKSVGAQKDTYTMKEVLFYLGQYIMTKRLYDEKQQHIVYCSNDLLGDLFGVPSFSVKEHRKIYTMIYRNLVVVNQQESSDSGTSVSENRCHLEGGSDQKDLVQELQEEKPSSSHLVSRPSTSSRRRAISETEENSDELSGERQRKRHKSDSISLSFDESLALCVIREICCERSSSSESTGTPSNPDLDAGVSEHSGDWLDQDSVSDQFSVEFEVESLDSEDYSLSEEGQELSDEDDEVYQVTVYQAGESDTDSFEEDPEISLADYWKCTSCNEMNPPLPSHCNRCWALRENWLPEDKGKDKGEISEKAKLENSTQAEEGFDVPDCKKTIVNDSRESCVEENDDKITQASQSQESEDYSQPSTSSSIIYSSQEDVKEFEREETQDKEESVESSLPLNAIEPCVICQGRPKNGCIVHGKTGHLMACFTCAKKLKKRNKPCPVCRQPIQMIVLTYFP

[6] = Homo sapiens, SiHa, 48 h, read-out: IC50

| Ki [5] [µM] | SMILES | IC50 [1] [µM] | IC50 (HEK293) [µM] | IC50 (SiHa; siha) | IC50 (HepG2) [µM] | IC50 [2] [µM] | IC50 (MCF7 [3]) [µM] | IC50 (SiHa; [6]) [µM] | CC50 (MCF7 [4]) [µM] |
| --- | --- | --- | --- | --- | --- | --- | --- | --- | --- |
| – | CC(C)Oc1ccc(C2CN(C)[C@]3(C(=O)Nc4ccccc43)[C@]23NC(=S)N(c2ccc(F)c(Cl)c2)C3=O)cc1 (stereo partly specified) | 7.4 | 13.5 | Not Active | 49.9 | 8.55 | 20.2 | – | – |
| – | CN1CC(c2ccc(Cl)cc2)[C@@]2(NC(=S)N(c3ccc(F)c(Cl)c3)C2=O)[C@@]12C(=O)Nc1ccccc12 (stereo partly specified) | 7.33 | 5.68 | – | 9.08 | 7.78 | 4.88 | 7.65 | – |
| – | CC(C)Oc1ccc(C2CN(C)[C@]3(C(=O)Nc4ccc(Br)cc43)[C@]23NC(=S)N(c2ccc(F)c(Cl)c2)C3=O)cc1 (stereo partly specified) | 19.4 | 15.8 | Not Active | 34.6 | 38.8 | 34.9 | – | – |
| – | CCOc1ccc(N2C(=O)[C@@]3(NC2=S)C(c2ccc(Cl)cc2)CN(C)[C@]32C(=O)Nc3ccccc32)cc1 (stereo partly specified) | 8.57 | 9.1 | – | 103 | 8.6 | 87.7 | 81.7 | – |
| – | CCc1ccc(C2CN(C)[C@]3(C(=O)Nc4ccccc43)[C@]23NC(=S)N(c2ccc(F)c(Cl)c2)C3=O)cc1 (stereo partly specified) | 8.45 | 12.5 | – | 33.9 | 8.6 | 19 | 42.5 | – |
| – | CCOc1ccc(N2C(=O)[C@@]3(NC2=S)C(c2ccc(Cl)cc2)CN(C)[C@]32C(=O)Nc3ccc(Br)cc32)cc1 (stereo partly specified) | 16.3 | 28.6 | Not Active | 42.1 | ≥ 50 | 34.9 | – | – |
| – | CN1CC(c2ccc(Cl)cc2)[C@@]2(NC(=S)N(c3ccc(F)c(Cl)c3)C2=O)[C@@]12C(=O)Nc1ccc(Br)cc12 (stereo partly specified) | 8.65 | 10.3 | – | 11.1 | 9.9 | 6.84 | 12.1 | – |
| – | CCc1ccc(C2CN(C)[C@]3(C(=O)Nc4ccc(Br)cc43)[C@]23NC(=S)N(c2ccc(F)c(Cl)c2)C3=O)cc1 (stereo partly specified) | 33.5 | 15.6 | – | 23 | 11.6 | 15.5 | 79.1 | – |
| – | CCOc1cc(C(C)(C)C)ccc1C1=N[C@@](C)(c2ccc(Cl)cc2)[C@@](C)(c2ccc(Cl)cc2)N1C(=O)N1CCN(CCS(C)(=O)=O)CC1 | – | – | – | – | – | – | – | 0.94 |
| 0.9 | CC(C)CC(N/C(C(=O)NCc1ccccc1)=C1\C(C(=O)NO)=Nc2cc(Cl)ccc21)C(=O)NO (stereo unspecified) | – | – | – | – | – | – | – | – |
| – | COc1ccc(C2=N[C@@H](c3ccc(Cl)cc3)[C@@H](c3ccc(Cl)cc3)N2C(=O)N2CCNC(=O)C2)c(OC(C)C)c1 [NUTLIN-3] | – | – | – | 5.1 | – | – | – | – |
